Test results from PubChem BioAssay AID624447 (The Scripps Research Institute Molecular Screening Center, 2012).
Calls of active or inactive are those of the source.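 Rule for the calls: active = PP2A blockers whose half-maximal inhibitory concentration IC50 falls below 50 µM; inactive = IC50 at or above 50 µM.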

Target: Serine/threonine-protein phosphatase 2A catalytic subunit alpha isoform (Bos taurus) (UniProt P67774)
Experiment: PP2A inhibitor potency, phosphohistone substrate, late-stage follow-up, selectivity assay for PP5 inhibitor project, biochemical, bovine brain PP2A, 32P-phosphohistone, dose response, round 5 (AID 624447)
Conditions: purified bovine PP2A, 32P-phosphohistone dephosphorylation, scintillation

Sequence of Serine/threonine-protein phosphatase 2A catalytic subunit alpha isoform (Bos taurus) (P67774 whole entry, looked up, canonical isoform): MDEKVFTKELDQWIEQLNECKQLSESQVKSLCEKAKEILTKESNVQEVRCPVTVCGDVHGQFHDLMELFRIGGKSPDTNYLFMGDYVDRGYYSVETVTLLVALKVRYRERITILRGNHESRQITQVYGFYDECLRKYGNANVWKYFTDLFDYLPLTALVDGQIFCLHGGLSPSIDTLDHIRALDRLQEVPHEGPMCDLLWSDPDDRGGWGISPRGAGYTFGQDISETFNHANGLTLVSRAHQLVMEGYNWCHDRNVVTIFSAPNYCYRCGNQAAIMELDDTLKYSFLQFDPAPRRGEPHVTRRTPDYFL

## CC(C)Oc1ccccc1-c1n[nH]nc1C(=O)O
  IC50: inactive
